From ChEMBL document CHEMBL4602687, “Dual Binding to Orthosteric and Allosteric Sites Enhances the Anticancer Activity of a TRAP1-Targeting Drug” (J Med Chem, 2020) come the findings set out here.

The structures appear in SMILES notation.

Data set [1] concerns the target T1, Heat shock protein 75 kDa, mitochondrial (Homo sapiens, UniProt Q12931).
T1 sequence (Q12931 whole entry): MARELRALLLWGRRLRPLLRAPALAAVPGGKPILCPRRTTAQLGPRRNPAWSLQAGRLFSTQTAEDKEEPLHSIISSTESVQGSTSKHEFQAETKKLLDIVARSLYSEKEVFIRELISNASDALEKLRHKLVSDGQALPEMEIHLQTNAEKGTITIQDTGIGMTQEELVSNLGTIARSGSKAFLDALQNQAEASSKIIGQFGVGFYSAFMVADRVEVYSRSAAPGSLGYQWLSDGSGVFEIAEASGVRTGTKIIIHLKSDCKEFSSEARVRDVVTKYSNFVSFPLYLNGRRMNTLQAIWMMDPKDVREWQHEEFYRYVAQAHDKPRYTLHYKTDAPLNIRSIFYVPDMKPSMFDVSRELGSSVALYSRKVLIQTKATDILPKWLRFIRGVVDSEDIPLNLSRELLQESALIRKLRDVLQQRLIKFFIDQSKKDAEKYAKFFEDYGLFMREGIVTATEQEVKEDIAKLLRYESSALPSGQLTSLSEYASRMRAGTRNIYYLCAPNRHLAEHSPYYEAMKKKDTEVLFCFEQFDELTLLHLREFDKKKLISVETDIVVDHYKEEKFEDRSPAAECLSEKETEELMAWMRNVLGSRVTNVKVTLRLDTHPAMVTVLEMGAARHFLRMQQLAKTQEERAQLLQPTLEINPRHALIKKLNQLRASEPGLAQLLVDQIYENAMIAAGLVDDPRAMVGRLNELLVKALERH
In words: Inhibition of PU-H71-FITC binding to recombinant wild-type human TRAP1 expressed in Escherichia coli BL21 (DE3) measured after 2 hrs by fluorescence polarization assay.

The target of data set [2] is T2, Heat shock protein HSP90 (Homo sapiens, UniProt P07900+P08238). Put plainly: Inhibition of HSP90 in human PC3 cells assessed as change in Cdk4 expression at 5 uM measured after 2 to 12 hrs by Western blot analysis. Conditions: pc-3, 5 µM; call rule not given here. The format is cell-based. (In western blotting, separated proteins are transferred to a membrane and probed.)
The target in data set [3] is T2, Heat shock protein HSP90. In words: Inhibition of HSP90 in human PC3 cells at 5 uM measured after 2 to 12 hrs by Western blot analysis. The format is cell-based. Conditions: pc-3, 5 µM.
For data set [4], the target named is T2, Heat shock protein HSP90. Put plainly: Inhibition of HSP90 in human PC3 cells assessed as change in Chk1 expression at 5 uM measured after 2 to 12 hrs by Western blot analysis. The format is cell-based. As to conditions: pc-3, 5 µM.
Data set [5] deals with T2, Heat shock protein HSP90. In words: Inhibition of HSP90 in human PC3 cells assessed as change in AKT expression at 5 uM measured after 2 to 12 hrs by Western blot analysis. In kind it is cell-based. As to conditions: pc-3, 5 µM.
The test system of a further data set is Hepatocyte. Put plainly: Cytotoxicity against mouse hepatocytes assessed as reduction in cell viability up to 3 uM measured after 24 hrs by MTT assay. In kind it is cell-based. (In general: Tetrazolium assays rely on reduction of a dye to a coloured formazan, in cell work by metabolically active cells.)
The target of data set [6] is T2, Heat shock protein HSP90. In words: Inhibition of HSP90 in human PC3 cells assessed as change in Hsp70 expression at 5 uM measured after 2 to 12 hrs by Western blot analysis. The format is cell-based. Conditions: pc-3, 5 µM.

For orientation: IC50 means the concentration that gives 50% inhibition. Take `Nc1ncnc2c1nc(Sc1cc3c(cc1I)OCO3)n2CCCCCC[P+](c1ccccc1)(c1ccccc1)c1ccccc1`: the half-inhibitory concentration (IC50) in data set [1] turned out to be 794 nM.
With `Nc1ncnc2c1nc(Sc1cc3c(cc1I)OCO3)n2CCCCCCCCCC[P+](c1ccccc1)(c1ccccc1)c1ccccc1.[Br-]`, the IC50 in data set [1] is 1880 nM. Further, the “inhibition (INH)” value at Heat shock protein HSP90 [2], at Heat shock protein HSP90 [3], on Heat shock protein HSP90 [4], at Heat shock protein HSP90 [5] and on Heat shock protein HSP90 [6] was “Not Active” in each case. Besides, the Activity entry with Hepatocyte is recorded as “Non-Toxic”.
For `Nc1ncnc2c1nc(Sc1cc3c(cc1I)OCO3)n2CCCCCCCC[P+](c1ccccc1)(c1ccccc1)c1ccccc1`, in data set [1], the IC50 is 872 nM.
